Reference: ChEMBL document CHEMBL3885881, “DrugMatrix”

Species on record: Rattus norvegicus
Assay: DrugMatrix - Regimen: Daily Repeat
Format: toxicity, organism-based, Sprague-Dawley
Parameters: regimen Daily Repeat, gender Male, age 6-8 weeks
Conditions: in vivo, po, route oral GAVAGE, vehicle .5 % CMC; for URIC ACID / ALANINE AMINOTRANSFERASE / ALBUMIN / ALKALINE PHOSPHATASE / ASPARTATE AMINOTRANSFERASE / BLOOD UREA NITROGEN / CARBON DIOXIDE / CHLORIDE / CHOLESTEROL / CREATINE PHOSPHOKINASE / CREATININE / GLUCOSE / LACTATE DEHYDROGENASE / LIPASE / PHOSPHORUS / POTASSIUM / SODIUM / TOTAL BILIRUBIN / TOTAL PROTEIN: tissue Plasma; for ABSOLUTE BASOPHIL / ABSOLUTE EOSINOPHIL / ABSOLUTE LYMPHOCYTE / ABSOLUTE MONOCYTE / ABSOLUTE SEGMENTED NEUTROPHIL / BASOPHIL / EOSINOPHIL / ERYTHROCYTE COUNT / HEMATOCRIT / HEMOGLOBIN / LEUKOCYTE COUNT / LYMPHOCYTE / MEAN CORPUSCULAR HEMOGLOBIN / MEAN CORPUSCULAR HEMOGLOBIN CONCENTRATION / MEAN CORPUSCULAR VOLUME / MONOCYTE / NEUTROPHIL / NUCLEATED RED BLOOD CELLS / PLATELET COUNT: tissue Blood
[1] = 3 mg/kg, 120 h, dose level Low, time 5 day
[2] = 29 mg/kg, 72 h, dose level High, time 3 day
[3] = 29 mg/kg, 120 h, dose level High, time 5 day

`O=c1[nH]cc(F)c(=O)[nH]1` [FLUOROURACIL] was tested, and the “URIC ACID” value (3 mg/kg, 72 h, dose level Low, time 3 day) was 2.6 mg/dL, the “ABSOLUTE BASOPHIL” value [1] was 0 CELLS/uL and the “ABSOLUTE EOSINOPHIL” value [1] was 0 CELLS/uL. For the same compound, the “ABSOLUTE LYMPHOCYTE” value [1] was 14436 CELLS/uL, the “ABSOLUTE MONOCYTE” value [1] was 30.67 CELLS/uL and the “ABSOLUTE SEGMENTED NEUTROPHIL” value [1] was 1566.67 CELLS/uL. The BASOPHIL [1] was 0%, the EOSINOPHIL [1] was 0% and the “ERYTHROCYTE COUNT” value [1] was 6.23 x10E6/uL. The HEMATOCRIT [1] was 38.2%, the HEMOGLOBIN [1] was 14.4 G/DL and the “LEUKOCYTE COUNT” value [1] was 16.03 x10E3/uL. The LYMPHOCYTE [1] was 88.67%, the “MEAN CORPUSCULAR HEMOGLOBIN” value [1] was 23.13 pg and the “MEAN CORPUSCULAR HEMOGLOBIN CONCENTRATION” value [1] was 37.73 G/DL. The “MEAN CORPUSCULAR VOLUME” value [1] was 61.3 fL, the MONOCYTE [1] was 0.33% and the NEUTROPHIL [1] was 11%. For the same compound, the “NUCLEATED RED BLOOD CELLS” value [1] was 0 /100WBC, the “PLATELET COUNT” value [1] was 1198.67 x10E3/uL and the “ALANINE AMINOTRANSFERASE” value [1] was 42.67 u/L. The ALBUMIN [1] was 4.47 G/DL, the “ALKALINE PHOSPHATASE” value [1] was 303.33 u/L and the “ASPARTATE AMINOTRANSFERASE” value [1] was 79 u/L. The “BLOOD UREA NITROGEN” value [1] was 16 mg/dL, the “CARBON DIOXIDE” value [1] was 27.67 mmol/L and the CHLORIDE [1] was 99.67 MEQ/L. For the same compound, the CHOLESTEROL [1] was 71 mg/dL, the “CREATINE PHOSPHOKINASE” value [1] was 253.67 u/L and the CREATININE [1] was 0.22 mg/dL. For the same compound, the GLUCOSE [1] was 146 mg/dL, the “LACTATE DEHYDROGENASE” value [1] was 229 u/L and the LIPASE [1] was 8.33 u/L. The PHOSPHORUS [1] was 11.5 mg/dL, the POTASSIUM [1] was 6.67 MEQ/L and the SODIUM [1] was 144.17 MEQ/L. The “TOTAL BILIRUBIN” value [1] was 0.2 mg/dL, the “URIC ACID” value [1] was 1.6 mg/dL and the “ABSOLUTE BASOPHIL” value [2] was 0 CELLS/uL. The “ABSOLUTE EOSINOPHIL” value [2] was 63.33 CELLS/uL, the “ABSOLUTE LYMPHOCYTE” value [2] was 11413 CELLS/uL and the “ABSOLUTE MONOCYTE” value [2] was 90.33 CELLS/uL. For the same compound, the “ABSOLUTE SEGMENTED NEUTROPHIL” value [2] was 633.33 CELLS/uL, the BASOPHIL [2] was 0% and the EOSINOPHIL [2] was 0.67%. For the same compound, the “ERYTHROCYTE COUNT” value [2] was 5.41 x10E6/uL, the HEMATOCRIT [2] was 34.9% and the HEMOGLOBIN [2] was 13.17 G/DL. The “LEUKOCYTE COUNT” value [2] was 12.2 x10E3/uL, the LYMPHOCYTE [2] was 93.67% and the “MEAN CORPUSCULAR HEMOGLOBIN” value [2] was 24.33 pg. The “MEAN CORPUSCULAR HEMOGLOBIN CONCENTRATION” value [2] was 37.73 G/DL, the “MEAN CORPUSCULAR VOLUME” value [2] was 64.5 fL and the MONOCYTE [2] was 0.67%. The NEUTROPHIL [2] was 5%, the “NUCLEATED RED BLOOD CELLS” value [2] was 0.33 /100WBC and the “PLATELET COUNT” value [2] was 1461.33 x10E3/uL. For the same compound, the “ALANINE AMINOTRANSFERASE” value [2] was 43.33 u/L, the ALBUMIN [2] was 4.47 G/DL and the “ALKALINE PHOSPHATASE” value [2] was 451.67 u/L. For the same compound, the “ASPARTATE AMINOTRANSFERASE” value [2] was 81.67 u/L, the “BLOOD UREA NITROGEN” value [2] was 15.67 mg/dL and the “CARBON DIOXIDE” value [2] was 26.33 mmol/L. The CHLORIDE [2] was 101.67 MEQ/L, the CHOLESTEROL [2] was 58.67 mg/dL and the “CREATINE PHOSPHOKINASE” value [2] was 429.33 u/L. The CREATININE [2] was 0.19 mg/dL, the GLUCOSE [2] was 206.33 mg/dL and the “LACTATE DEHYDROGENASE” value [2] was 150.67 u/L. The LIPASE [2] was 8 u/L, the PHOSPHORUS [2] was 12.07 mg/dL and the POTASSIUM [2] was 6.46 MEQ/L. The SODIUM [2] was 143.2 MEQ/L, the “TOTAL BILIRUBIN” value [2] was 0.17 mg/dL and the “TOTAL PROTEIN” value [2] was 6.07 G/DL. The “URIC ACID” value [2] was 2.17 mg/dL, the “ABSOLUTE BASOPHIL” value [3] was 0 CELLS/uL and the “ABSOLUTE EOSINOPHIL” value [3] was 58 CELLS/uL. For the same compound, the “ABSOLUTE LYMPHOCYTE” value [3] was 4679.33 CELLS/uL, the “ABSOLUTE MONOCYTE” value [3] was 33 CELLS/uL and the “ABSOLUTE SEGMENTED NEUTROPHIL” value [3] was 263 CELLS/uL. The BASOPHIL [3] was 0%, the EOSINOPHIL [3] was 1% and the “ERYTHROCYTE COUNT” value [3] was 6.26 x10E6/uL. The HEMATOCRIT [3] was 39%, the HEMOGLOBIN [3] was 15.3 G/DL and the “LEUKOCYTE COUNT” value [3] was 5.03 x10E3/uL. For the same compound, the LYMPHOCYTE [3] was 93%, the “MEAN CORPUSCULAR HEMOGLOBIN” value [3] was 24.43 pg and the “MEAN CORPUSCULAR HEMOGLOBIN CONCENTRATION” value [3] was 39.23 G/DL. For the same compound, the “MEAN CORPUSCULAR VOLUME” value [3] was 62.37 fL, the MONOCYTE [3] was 0.67% and the NEUTROPHIL [3] was 5.33%. The “NUCLEATED RED BLOOD CELLS” value [3] was 0 /100WBC, the “PLATELET COUNT” value [3] was 964.67 x10E3/uL and the “ALANINE AMINOTRANSFERASE” value [3] was 23.67 u/L. The ALBUMIN [3] was 4.03 G/DL, the “ALKALINE PHOSPHATASE” value [3] was 148.33 u/L and the “ASPARTATE AMINOTRANSFERASE” value [3] was 75.67 u/L. The “BLOOD UREA NITROGEN” value [3] was 18.67 mg/dL, the “CARBON DIOXIDE” value [3] was 25 mmol/L and the CHLORIDE [3] was 102.67 MEQ/L. The CHOLESTEROL [3] was 89.67 mg/dL, the “CREATINE PHOSPHOKINASE” value [3] was 751.33 u/L and the CREATININE [3] was 0.12 mg/dL. For the same compound, the GLUCOSE [3] was 106.67 mg/dL, the “LACTATE DEHYDROGENASE” value [3] was 166.33 u/L and the LIPASE [3] was 7.33 u/L. The PHOSPHORUS [3] was 7.93 mg/dL, the POTASSIUM [3] was 5.82 MEQ/L and the SODIUM [3] was 150.33 MEQ/L. For the same compound, the “TOTAL BILIRUBIN” value [3] was 0.17 mg/dL, the “TOTAL PROTEIN” value [3] was 5.57 G/DL and the “URIC ACID” value [3] was 0.93 mg/dL.
